The results in this text go back to US7696197B2, “Use of a phenothiazine derivative for preventing and/or treating hearing loss” (Societe de Conseils de Recherches et d'Applications …, priority 2004, dated 2010).

In the data set the test system is neuromast acoustic hair cells. Nature of the data set: Ototoxicity induced by gentamicin in zebrafish, DASPEI staining of neuromast acoustic hair cells. In kind it is in vivo. The following applies: 24 hours, fish aged 5 days. From the text:
Zebrafish display the sensory organs on the surface of their bodies, called neuromasts. In these fish, the neuromast acoustic hair cells can be stained with DASPEI and this staining reflects the number of acoustic hair cells. These acoustic hair cells are structurally and functionally similar to the internal acoustic hair cells of the human ear.
Damage to the internal acoustic hair cells is induced in zebrafish by gentamicin. In order to test the effect of compound (1) on the protection of the acoustic hair cells damaged by gentamicin, the compound (1) was administered as a co-treatment with gentamicin. The internal acoustic hair cells are then stained and quantified.
The study is undertaken on fish aged 5 days incubated with 1 μg/ml of gentamicin for 24 hours in the presence or in the absence of compound (1). Controls are carried out in parallel; single vehicle (1% DMSO; positive control). The fish treated with gentamicin are the negative controls.
DASPEI (2,4-dimethyl-aminostyryl-N-ethyl pyridinium iodide) staining is carried out in order to visualize the acoustic hair cells in vivo (n=5 per group). Morphometric analysis is used in order to quantify the staining signal of the acoustic hair cells. The signal for DASPEI staining of the positive controls was defined as 100%. […]

With gentamicin, under “gentamicin 1 μg/ml alone (negative control)”, the “DASPEI staining signal of acoustic hair cells, % of the control signal” value is reported as 31.5±4.2%. For the same substance, the “loss of the acoustic hair cells following treatment with gentamicin” value (gentamicin 1 μg/ml alone) is given as 68.5±4.9%.
